Tests used:
[1] = target: hGYS2 enzyme (recombinant hGYS2/GN1 protein) (Homo sapiens (Human), UniProt P54840); assay: GYS2 coupled enzyme assay (PK/LDH); assay type: biochemical; details: geometric mean of at least 2 assay runs on separate days, read-out: Avg_IC50
Method in brief: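 Read-out: NADH loss at 340 nm, read each minute for 10 min, slope normalized to controls, duplicate % inhibition fit to Hill (0–100). Enzyme: 200 nM hGYS2/GN1; substrate 2 mM UDP-glucose plus 0.2% glycogen and 2 mM G6P; pH 7.5 Tris, 2.5% DMSO.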

[2] = target: hGYS1 enzyme (recombinant hGYS1/GN1 protein) (Homo sapiens (Human), UniProt P13807); assay: GYS1 coupled enzyme assay (PK/LDH); assay type: biochemical; details: hGYS1/GN1 50 nM, UDP-Glucose 0.8 mM, G6P 1 mM; geometric mean of at least 2 runs
hGYS1 enzyme (recombinant hGYS1/GN1 protein), sequence (P13807 whole entry): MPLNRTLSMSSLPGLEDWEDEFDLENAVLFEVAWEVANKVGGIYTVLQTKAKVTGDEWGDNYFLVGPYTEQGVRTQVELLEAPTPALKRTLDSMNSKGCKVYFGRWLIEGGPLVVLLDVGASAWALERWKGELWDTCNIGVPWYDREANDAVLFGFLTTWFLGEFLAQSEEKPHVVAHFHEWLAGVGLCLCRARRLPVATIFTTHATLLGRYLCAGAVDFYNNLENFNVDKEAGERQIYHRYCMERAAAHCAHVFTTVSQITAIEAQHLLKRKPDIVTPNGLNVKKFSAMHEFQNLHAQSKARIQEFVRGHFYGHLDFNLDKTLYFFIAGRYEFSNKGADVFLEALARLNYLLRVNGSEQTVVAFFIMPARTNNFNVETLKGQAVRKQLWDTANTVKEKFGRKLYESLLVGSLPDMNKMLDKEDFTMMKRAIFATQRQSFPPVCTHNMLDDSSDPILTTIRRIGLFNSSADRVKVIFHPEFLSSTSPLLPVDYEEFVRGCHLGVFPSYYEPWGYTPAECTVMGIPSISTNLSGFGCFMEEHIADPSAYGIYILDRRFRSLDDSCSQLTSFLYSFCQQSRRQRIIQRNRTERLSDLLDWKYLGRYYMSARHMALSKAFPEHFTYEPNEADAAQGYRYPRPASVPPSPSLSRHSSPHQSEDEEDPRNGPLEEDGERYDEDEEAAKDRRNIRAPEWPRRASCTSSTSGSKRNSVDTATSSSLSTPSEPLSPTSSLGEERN
hGYS1 enzyme (recombinant hGYS1/GN1 protein), sequence (P46976 whole entry partner): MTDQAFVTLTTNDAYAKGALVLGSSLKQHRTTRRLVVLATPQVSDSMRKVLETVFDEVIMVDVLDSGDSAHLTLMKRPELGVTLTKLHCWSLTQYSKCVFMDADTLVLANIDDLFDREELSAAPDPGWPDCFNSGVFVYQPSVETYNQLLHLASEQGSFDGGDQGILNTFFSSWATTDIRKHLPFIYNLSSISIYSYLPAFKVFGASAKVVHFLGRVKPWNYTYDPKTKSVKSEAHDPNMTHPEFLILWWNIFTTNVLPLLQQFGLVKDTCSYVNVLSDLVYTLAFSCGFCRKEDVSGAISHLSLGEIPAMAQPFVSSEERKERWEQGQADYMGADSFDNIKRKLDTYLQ

hGYS2 enzyme (recombinant hGYS2/GN1 protein), sequence (P54840 whole entry): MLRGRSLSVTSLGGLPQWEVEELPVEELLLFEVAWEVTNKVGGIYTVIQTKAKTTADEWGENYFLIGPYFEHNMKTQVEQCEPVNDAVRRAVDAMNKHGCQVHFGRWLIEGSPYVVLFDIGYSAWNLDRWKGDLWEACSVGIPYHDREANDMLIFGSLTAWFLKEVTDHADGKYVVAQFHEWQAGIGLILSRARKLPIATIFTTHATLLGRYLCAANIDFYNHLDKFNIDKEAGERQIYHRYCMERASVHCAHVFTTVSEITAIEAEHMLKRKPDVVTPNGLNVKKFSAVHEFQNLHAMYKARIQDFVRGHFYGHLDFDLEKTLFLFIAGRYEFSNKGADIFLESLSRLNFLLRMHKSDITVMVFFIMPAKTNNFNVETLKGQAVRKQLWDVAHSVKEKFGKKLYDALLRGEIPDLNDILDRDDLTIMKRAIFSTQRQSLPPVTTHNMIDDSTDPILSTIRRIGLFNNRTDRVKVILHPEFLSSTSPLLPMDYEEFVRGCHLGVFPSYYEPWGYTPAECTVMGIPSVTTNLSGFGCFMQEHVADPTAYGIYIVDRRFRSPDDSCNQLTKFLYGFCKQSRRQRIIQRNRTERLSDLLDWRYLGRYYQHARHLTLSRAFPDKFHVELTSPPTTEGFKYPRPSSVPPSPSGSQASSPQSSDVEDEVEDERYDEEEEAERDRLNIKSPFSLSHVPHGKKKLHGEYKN
hGYS2 enzyme (recombinant hGYS2/GN1 protein), sequence (P46976 whole entry partner): as the sequence (P46976 whole entry partner) above

| IC50 [1] [nM] | IC50 [2] [nM] | Structure (SMILES) |
| --- | --- | --- |
| > 100000 | 136 | CC(=O)N1C[C@H]2C[C@H](C(=O)N3C[C@H](F)C[C@H]3C(=O)N[C@@H](c3ccccc3)c3ccc(C(C)C)cc3)O[C@H]2C1 [Compound 162, (2S,4R)-1-[(2R,3aR,6aR)-5-acetyl-hexahydro-2H-furo[2,3-c]pyrrole-2-carbonyl]-4-fluoro-N-[(S)-phenyl[4-(propan-2-yl)phenyl]methyl]pyrrolidine-2-carboxamide] |
| > 100000 | 135 | CC(=O)N1CC2(CCC(C(=O)N3C[C@H](F)C[C@H]3C(=O)N[C@@H](c3ccccc3)c3ccc(C(C)C)cc3)O2)C1 (stereo partly drawn) [Compound 163, (2S,4R)-1-{2-acetyl-5-oxa-2-azaspiro[3.4]octane-6-carbonyl}-4-fluoro-N-[(S)-phenyl[4-(propan-2-yl)phenyl]methyl]pyrrolidine-2-carboxamide] |
| > 100000 | 91 | CC(=O)N1CCCC(C(=O)N2C[C@H](F)C[C@H]2C(=O)N[C@@H](c2ccccc2)c2ccc(C(C)C)cc2)CC1 (stereo partly drawn) [Compound 169, (2S,4R)-1-(1-acetylazepane-4-carbonyl)-4-fluoro-N-[(S)-phenyl[4-(propan-2-yl)phenyl]methyl]pyrrolidine-2-carboxamide] |
| > 100000 | 97 | CC(=O)N1CCC[C@@H](CC(=O)N2C[C@H](F)C[C@H]2C(=O)N[C@@H](c2ccccc2)c2ccc(C(C)C)cc2)C1 [Compound 171, (2S,4R)-1-{2-[(3S)-1-acetylpiperidin-3-yl]acetyl}-4-fluoro-N-[(S)-phenyl[4-(propan-2-yl)phenyl]methyl]pyrrolidine-2-carboxamide] |
| > 100000 | 255 | CC(=O)N1CCCC1CCC(=O)N1C[C@H](F)C[C@H]1C(=O)N[C@@H](c1ccccc1)c1ccc(C(C)C)cc1 (stereo partly drawn) [Compound 172, (2S,4R)-1-[3-(1-acetylpyrrolidin-2-yl)propanoyl]-4-fluoro-N-[(S)-phenyl[4-(propan-2-yl)phenyl]methyl]pyrrolidine-2-carboxamide] |
| > 100000 | 179 | CC(=O)N1CCC2(CC1)CC2C(=O)N1C[C@H](F)C[C@H]1C(=O)N[C@@H](c1ccccc1)c1ccc(C(C)C)cc1 (stereo partly drawn) [Compound 174, (2S,4R)-1-{6-acetyl-6-azaspiro[2.5]octane-1-carbonyl}-4-fluoro-N-[(S)-phenyl[4-(propan-2-yl)phenyl]methyl]pyrrolidine-2-carboxamide] |
| > 100000 | 235 | CC(=O)N1CCC(C(C)C(=O)N2C[C@H](F)C[C@H]2C(=O)N[C@@H](c2ccccc2)c2ccc(C(C)C)cc2)CC1 (stereo partly drawn) [Compound 180, (2S,4R)-1-[2-(1-acetylpiperidin-4-yl)propanoyl]-4-fluoro-N-[(S)-phenyl[4-(propan-2-yl)phenyl]methyl]pyrrolidine-2-carboxamide] |
| > 100000 | 26 | CC(C)c1ccc([C@@H](NC(=O)[C@@H]2C[C@@H](F)CN2C(=O)C(O)C(C)C)c2ccccc2)cc1 (stereo partly drawn) [Compound 185, (2S,4R)-4-fluoro-1-(2-hydroxy-3-methylbutanoyl)-N-[(S)-phenyl[4-(propan-2-yl)phenyl]methyl]pyrrolidine-2-carboxamide] |
| > 100000 | 73 | CC(C)c1ccc([C@@H](NC(=O)[C@@H]2C[C@@H](F)CN2C(=O)CNC(=O)C(F)(F)F)c2ccccc2)cc1 [Compound 187, (2S,4R)-4-fluoro-N-[(S)-phenyl[4-(propan-2-yl)phenyl]methyl]-1-[2-(2,2,2-trifluoroacetamido)acetyl] pyrrolidine-2-carboxamide] |
| > 100000 | 237 | CC(C)c1ccc([C@@H](NC(=O)[C@@H]2C[C@@H](F)CN2C(=O)CC#N)c2ccccc2)cc1 [Compound 188, (2S,4R)-1-(2-cyanoacetyl)-4-fluoro-N-[(S)-phenyl[4-(propan-2-yl)phenyl]methyl]pyrrolidine-2-carboxamide] |
| > 100000 | 95 | CC(=O)N(CC(N)=O)CC(=O)N1C[C@H](F)C[C@H]1C(=O)N[C@@H](c1ccccc1)c1ccc(C(C)C)cc1 [Compound 189, (2S,4R)-1-{2-[N-(carbamoylmethyl)acetamido]acetyl}-4-fluoro-N-[(S)-phenyl[4-(propan-2-yl)phenyl]methyl]pyrrolidine-2-carboxamide] |
| > 100000 | 220 | CC(=O)NCCC(=O)N1C[C@H](F)C[C@H]1C(=O)N[C@@H](c1ccccc1)c1ccc(C(C)C)cc1 [Compound 190, (2S,4R)-1-(3-acetamidopropanoyl)-4-fluoro-N-[(S)-phenyl[4-(propan-2-yl)phenyl]methyl]pyrrolidine-2-carboxamide] |
| > 100000 | 131 | CC(=O)NCCCC(=O)N1C[C@H](F)C[C@H]1C(=O)N[C@@H](c1ccccc1)c1ccc(C(C)C)cc1 [Compound 191, (2S,4R)-1-(4-acetamidobutanoyl)-4-fluoro-N-[(S)-phenyl[4-(propan-2-yl)phenyl]methyl]pyrrolidine-2-carboxamide] |
| > 100000 | 76 | CC(C)c1ccc([C@@H](NC(=O)[C@@H]2C[C@@H](F)CN2C(=O)CN2CCCC2=O)c2ccccc2)cc1 [Compound 192, (2S,4R)-4-fluoro-1-[2-(2-oxopyrrolidin-1-yl)acetyl]-N-[(S)-phenyl[4-(propan-2-yl)phenyl]methyl]pyrrolidine-2-carboxamide] |
| > 100000 | 303 | CC(C)c1ccc([C@@H](NC(=O)[C@@H]2C[C@@H](F)CN2C(=O)CNC2(C)COC2)c2ccccc2)cc1 [Compound 193, (2S,4R)-4-fluoro-1-{2-[(3-methyloxetan-3-yl)amino]acetyl}-N-[(S)-phenyl[4-(propan-2-yl)phenyl]methyl]pyrrolidine-2-carboxamide] |
| > 100000 | 27 | CC(C)c1ccc([C@@H](NC(=O)[C@@H]2C[C@@H](F)CN2C(=O)Cc2nnc[nH]2)c2ccccc2)cc1 [Compound 194, (2S,4R)-4-fluoro-N-[(S)-phenyl[4-(propan-2-yl)phenyl]methyl]-1-[2-(4H-1,2,4-triazol-3-yl)acetyl]pyrrolidine-2-carboxamide] |
| > 100000 | 44 | CC(C)c1ccc([C@@H](NC(=O)[C@@H]2C[C@@H](F)CN2C(=O)Cc2cnco2)c2ccccc2)cc1 [Compound 195, (2S,4R)-4-fluoro-1-[2-(1,3-oxazol-5-yl)acetyl]-N-[(S)-phenyl[4-(propan-2-yl)phenyl]methyl]pyrrolidine-2-carboxamide] |
| > 100000 | 143 | CC(=O)N[C@@H](CCC(=O)O)C(=O)N1C[C@H](F)C[C@H]1C(=O)N[C@@H](c1ccccc1)c1ccc(C(C)C)cc1 [Compound 196, (4S)-4-acetamido-5-[(2S,4R)-4-fluoro-2-{[(S)-phenyl[4-(propan-2-yl)phenyl]methyl]carbamoyl}pyrrolidin-1-yl]-5-oxopentanoic acid] |
| > 100000 | 128 | CC(=O)N[C@H](CCC(=O)O)C(=O)N1C[C@H](F)C[C@H]1C(=O)N[C@@H](c1ccccc1)c1ccc(C(C)C)cc1 [Compound 197, (4R)-4-acetamido-5-[(2S,4R)-4-fluoro-2-{[(S)-phenyl[4-(propan-2-yl)phenyl]methyl]carbamoyl}pyrrolidin-1-yl]-5-oxopentanoic acid] |
| > 100000 | 862 | CC(C)c1ccc([C@@H](NC(=O)[C@@H]2CCCN2C(=O)C2CC2)c2ccccc2)cc1 [Compound 203, (2S)-1-cyclopropanecarbonyl-N-[(S)-phenyl[4-(propan-2-yl)phenyl]methyl]pyrrolidine-2-carboxamide] |
| > 100000 | 3530 | CC(=O)N1C[C@@H](O)C[C@H]1C(=O)N[C@@H](c1ccccc1)c1ccc(C(C)C)cc1 [Compound 204, (2S,4S)-1-acetyl-4-hydroxy-N-[(S)-phenyl[4-(propan-2-yl)phenyl]methyl]pyrrolidine-2-carboxamide] |
| > 100000 | 3740 | CC(=O)N1C[C@H](O)C[C@H]1C(=O)N[C@@H](c1ccccc1)c1ccc(C(C)C)cc1 [Compound 205, (2S,4R)-1-acetyl-4-hydroxy-N-[(S)-phenyl[4-(propan-2-yl)phenyl]methyl]pyrrolidine-2-carboxamide] |
| > 100000 | 2480 | CC(=O)N1CC[C@H](O)[C@H]1C(=O)N[C@@H](c1ccccc1)c1ccc(C(C)C)cc1 [Compound 206, (2S,3S)-1-acetyl-3-hydroxy-N-[(S)-phenyl[4-(propan-2-yl)phenyl]methyl]pyrrolidine-2-carboxamide] |
| > 100000 | 387 | CC(=O)N1C[C@H](F)C[C@H]1C(=O)N[C@@H](c1ccccc1)c1ccc(C(C)C)cc1 [Compound 207, (2S,4R)-1-acetyl-4-fluoro-N-[(S)-phenyl[4-(propan-2-yl)phenyl]methyl]pyrrolidine-2-carboxamide] |
| > 100000 | 113 | CC(=O)N[C@@H](CC(N)=O)C(=O)N1C[C@H](F)C[C@H]1C(=O)N[C@@H](c1ccccc1)c1ccc(C(C)C)cc1 [Compound 208, (2S,4R)-1-[(2S)-3-carbamoyl-2-acetamidopropanoyl]-4-fluoro-N-[(S)-phenyl[4-(propan-2-yl)phenyl]methyl]pyrrolidine-2-carboxamide] |
| > 100000 | 91 | CC(=O)N[C@H](CC(N)=O)C(=O)N1C[C@H](F)C[C@H]1C(=O)N[C@@H](c1ccccc1)c1ccc(C(C)C)cc1 [Compound 209, (2S,4R)-1-[(2R)-3-carbamoyl-2-acetamidopropanoyl]-4-fluoro-N-[(S)-phenyl[4-(propan-2-yl)phenyl]methyl]pyrrolidine-2-carboxamide] |
